“Also recorded” adds a separate entry of the source. Where two headings read alike, the source gives them in different places.
Tests used:
yeast estrogen screen = test system: yeast estrogen screen; parameters: method as in PMID 19499261; conditions: cited from earlier work
T47D-KBluc cells = experiment: cells; conditions: ERLUX; for Concentration at which estrogenic activity seen: and above
Method: T47D-KBluc cells were obtained from the ATCC and the protocol established by the depositing authors was followed. Cells were routinely grown in RPMI media (with 10% foetal calf serum (FCS)). For seven days prior to experiments, cells were maintained in low estrogen conditions by the use of pre-assay media (RPMI, 10% charcoal-dextran stripped FCS, no antibiotics). For experiments, cells were seeded in white polystyrene 96 well plates at a density of 10,000 cells/well and allowed to attach for 24 hours before removal of media, and application of test chemicals. Test chemicals were dissolved in ethanol to give stock solutions of millimolar concentrations. Test and control solutions were obtained by dilution of ethanolic stocks in dosing media (phenol red-free RPMI, 5% charcoal-dextran stripped FCS, no antibiotics), and in all cases the final concentration of ethanol was 0.5%. The positive control was 1 nM estradiol. Positive and vehicle controls were run as eight replicate wells per plate, and compounds were tested in a dilution series comprising eight concentrations, each concentration tested in triplicate. As recommended by Wilson et al. two additional controls were also included on each plate: 1) vehicle control plus an antiestrogen, ICI 182,780 (1 µM), and 2) positive control plus ICI 182,780 (1 µM). […] A crude measure of toxicity was provided by comparing values for treatments that were not positive, with the value of the vehicle control. […] 24 hours after application of test and control solutions, a volume of Steady-Glo assay reagent (Promega) equal to the volume of culture media was added and plates were incubated for ten minutes, with shaking, to allow for cell lysis. Plates were then loaded into a plate reader (FLUOstar Optima, BMG Labtech) and incubated for a further ten minutes in the dark, followed by measurement of luminescence. To reduce variation, the temperature of the plate reader chamber was maintained at 27°C throughout.
(§1) Experiments were performed on different days meaning that results for different dilution series and different batches of the test chemicals were obtained on different days. Each single chemical was tested in three or more independent experiments. Use of normalisation meant that data from different experiments could be reliably combined and compared, as discussed previously. Data was expressed relative to the positive control, rather than as fold change from the vehicle response, for two reasons.
Effect concentrations (ECx) were defined relative to the effects of the estradiol concentration used as the positive control, for example EC50 is the concentration producing an effect of 50% of the positive control (estradiol, 1 nM (ERLUX) or 25 nM (ESCREEN)).
(§2) Results from regression analysis for each test chemicals were used to predict the CA effect for fixed-ratio mixtures designed on 1) equi-effective concentrations (balanced design), 2) possible human serum levels (non-balanced design). The original mathematical formulation of CA that defines for a mixture composed of n components with concentration c1 of the first component, c2 of the second component, and cn for the n-th component a combination effect X is [drawing 1] (1) Here, ECX1, ECX1 …, ECXn are the concentrations of the individual components that on their own produce the same effect X as the mixture, [15] The quotients cn/ECXn are called toxic units and scale all compounds in the mixture relative to their toxicity. They can be interpreted as the contribution of the compound to the total mixture concentration that is expected to produce the mixture effect X. According to equation 1, a mixture effect for a pre-defined effect level X is described only implicitly.

MCF-7 cells [1] = experiment: Estrogenicity assay, mitogenic endpoint (ESCREEN); conditions: for Signs of toxicity at the highest concentrations (in words): highest concentrations shown in Figure 2, may indicate toxicity; for Signs of estrogenicity: Active at concentration: ‘Active’ = positive signal clearly distinguishable from assay variability and noise; for Signs of estrogenicity (in words): chemical screened as potential modulator, tested alone
Method: The ESCREEN assay was performed using cloned MCF-7 cells (described in [6], gifted from A. Soto, Boston) and the established ESCREEN method was followed using an adapted 96-well format. Cells were cultured in DMEM (5% FCS). For experiments, cells were seeded in clear polystyrene 96 well plates at a density of 2,500 cells/well and allowed to attach for 24 hours before washing with rinse media (phenol red-free DMEM, no supplements). […] Test chemicals were dissolved in ethanol to give stock solutions of millimolar concentrations. Test and control solutions were diluted prior to application in dosing media (phenol red free DMEM, 10% charcoal-dextran stripped FCS). The final concentration of ethanol was 0.5% in test and control wells. […] At all stages, media removal from cells was carried out gently and in a controlled fashion by use of an electronic multichannel pipette set to the lowest speed possible. Controls were run as eight replicate wells per plate and compounds were tested in a dilution series comprising eight concentrations, each concentration tested in two replicate wells per plate. The plate layout was designed to reduce variation due to evaporation and spreading of test chemicals, and had been previously optimised in the laboratory. After application of test solutions, plates were incubated for 120 hours before fixation with 10% trichloroacetic acid and sulforhodamine B (SRB) staining to measure protein and allow the indirect quantification of cell number.
as §1
as §2, with “implicitly. However, if the individual concentrations ci are expressed as relative fractions pi to the total mixture concentration ECxMix, then equation 1 can be re-arranged to [drawing 2] (2) which allows the direct calculation of the mixture concentration that is expected to produce the mixture effect X. To form a prediction curve, equation 2 is iterated through for various effect levels resulting in sets of effects and their associated predicted mixture concentration which are then plotted to produce a graph of the effect prediction.” for “implicitly.”
Both equations 1 and 2 require knowledge of the concentration of each mixture component that on its own produces the effect magnitude under consideration. For this reason, these equations cannot be used for predicting mixture effects that exceed the maximal effect of the least efficacious component, because those effect concentrations cannot be defined.

MCF-7 cells [2] = experiment: Modulation studies (ESCREEN only): effect of potential modulators on the response evoked by a reference mixture of estrogens (REFmix); format: cell-based, human; conditions: for Modulation of the REFmix effect (in words) / Concentration at which complete suppression (full inhibition) of REFmix effect was reached: ESCREEN; for Observed modulation: ESCREEN response to REFmix (Mixture 3d, ca. 50% effect), screening, one experiment; for Concentration at which complete suppression (full inhibition) of REFmix effect was reached: individual modulator screening
Text: Modulation studies comprised screening of individual modulators in low power experiments accompanied by parallel testing of an equimolar mixture of all modulators. This combination of low power screening and mixture testing provides the opportunity to assess a high number of chemicals (16 in this case) without a prohibitive amount of experimental effort. In this case the effects of 16 modulators could be evaluated using a total of 19 experimental plates (16 for screening and 3 for mixture testing).
To normalize for small changes in the absolute value of the positive control and the control response to the selected REFmix concentration, the response evoked by the REFmix control on each plate was defined as the 50% effect and all modulator study results are normalized to that value.
A mixture of modulators (MODmix) was also tested and was composed with a fixed ratio of equimolar concentrations, since the activity of each modulator was not known at the time of designing the mixture.
In these modulator studies, we examined 16 single chemicals (listed in Table 7) and an equimolar mixture of all 16 components for their ability to modulate the effects of a reference mixture (REFmix) which contained 14 food additives and contaminants (Table 1, Mixture 3d). […] Single chemicals were tested individually in single experiments (screening) and then a mixture composed using a fixed ratio of equal molarities was subjected to repeated testing.
Figure 5 Results of modulation studies. […] Experimental results are shown as grey circles representing each replicate (duplicate testing within the assay) and obtained in three independent (A) or one (B–Q) experiment (s). Experimental results were normalized by setting the value observed for the REFmix alone, the concentration of which was selected to evoke a […] of ca. 50%, to 0.5. The positive control values (black circles, eight replicates per experimental plate, 25 nM estradiol) are indicated adjacent to the y-axis. […] A black line indicates a LOESS spline fit to the data (A–Q) and a grey line indicates linear regression fit to the data for individual modulators (B–Q). A vertical dotted line is drawn at a mixture concentration of 1.6 µM (A) or at the concentration of each modulator present at that mixture concentration (0.1 uM, B–Q). Visual inspection of the individual modulator results (B–Q) was used to identify possible modulation, i.e. when the experimental data appears to deviate from the linear regression, or when the linear regression is not horizontal, and when the magnitude of the modulation is outside the variation expected in the assay.

## Nc1ccc([N+](=O)[O-])cc1[N+](=O)[O-] [2,4-dinitroaniline]
Yeast estrogen screen
  Modulation of the estrogenicity of estradiol or a ternary mixture of estradiol, estrone and estriol (in words): negative modulation

## CCCCOC(=O)c1ccccc1C(=O)OCc1ccccc1 [BBP, Butyl benzyl phthalate]
T47D-KBluc cells
  Estrogenicity when tested alone (in words): estrogenic
  Concentration at which estrogenic activity seen: 0.1 to 1 µM
T47D-KBluc cells; crude measure within the assay / dose-response analysis
  Toxicity (in words): evidence for toxicity
MCF-7 cells [1]; ESCREEN
  Signs of toxicity at the highest concentrations (in words): decline in response
  Signs of estrogenicity: Active at concentration: Active at 1 µM or higher
MCF-7 cells [1]; ESCREEN, reduction in signal at concentrations above those showing estrogenicity
  Signs of toxicity: Toxic at concentration: Toxic at 100 µM
MCF-7 cells [2]
  Modulation of the REFmix effect (in words): no indication of negative modulation
  Observed modulation: None

## c1ccc2c(c1)cc1ccc3cccc4ccc2c1c34 [Benzo [a] pyrene]
T47D-KBluc cells; concentration producing 10% effect relative to positive control 1 nM estradiol, 24 hours
  EC10: 0.862 µM
T47D-KBluc cells; concentration producing 25% effect relative to positive control 1 nM estradiol, 24 hours
  EC25: 2.06 µM
T47D-KBluc cells; estimated maximal model asymptote, effect relative to positive control (1 nM estradiol)
  Concentration Response Function θ^∧ max: 0.90
MCF-7 cells [1]; ESCREEN
  Signs of estrogenicity (in words): None
MCF-7 cells [1]; ESCREEN, listed as BaP
  Estrogenicity when tested alone (in words): not active; also recorded: not when tested alone
MCF-7 cells [2]
  Modulation of the REFmix effect (in words): clear negative modulation
  Observed modulation: Clear negative
  Concentration at which complete suppression (full inhibition) of REFmix effect was reached: ≤ 1 µM
MCF-7 cells [2]; listed as BaP
  Concentration at which complete suppression (full inhibition) of REFmix effect was reached: around 1 µM

## CCCCOC(=O)c1ccccc1C(=O)OCCCC [DBP, Di butyl phthalate]
T47D-KBluc cells
  Estrogenicity when tested alone (in words): no estrogenicity
MCF-7 cells [1]
  Signs of toxicity (in words): None
MCF-7 cells [1]; ESCREEN
  Signs of estrogenicity: Active at concentration: Active at 10 µM or higher
MCF-7 cells [2]
  Modulation of the REFmix effect (in words): possible negative modulation
  Observed modulation: Possible negative

## CCCCC(CC)COC(=O)c1ccccc1C(=O)OCC(CC)CCCC (stereo not shown) [DEHP, Di ethyl hexyl phthalate]
T47D-KBluc cells
  Estrogenicity when tested alone (in words): no estrogenicity
MCF-7 cells [1]; ESCREEN
  Concentration at which estrogenicity occurred when tested alone: greater than 1 µM
  Signs of toxicity at the highest concentrations (in words): decline in response
  Signs of estrogenicity: Active at concentration: Active at 1 µM or higher
MCF-7 cells [1]; ESCREEN, before a full estrogenic response was reached
  Concentration at which toxicity began: 5 µM
MCF-7 cells [2]
  Modulation of the REFmix effect (in words): no indication of negative modulation
  Observed modulation: None

## CCOC(=O)c1ccccc1C(=O)OCC [DEP, Di ethyl phthalate]
T47D-KBluc cells
  Estrogenicity when tested alone (in words): estrogenic
  Concentration at which estrogenic activity seen: 0.1 to 1 µM
MCF-7 cells [1]; ESCREEN
  Signs of toxicity (in words): None
  Signs of estrogenicity: Active at concentration: Active at 10 µM or higher
MCF-7 cells [2]
  Modulation of the REFmix effect (in words): no indication of negative modulation
  Observed modulation: None

## C[S+](C)[O-] [DMSO]
Yeast estrogen screen
  Modulation of the estrogenicity of estradiol or a ternary mixture of estradiol, estrone and estriol (in words): no effect

## [Cl][Hg][Cl] [HgCl2, Mercury chloride]
MCF-7 cells [1]; ESCREEN
  Signs of estrogenicity (in words): None
MCF-7 cells [1]; ESCREEN, decrease in value for treated wells below vehicle controls, assignment not certain
  Signs of toxicity: Possible toxicity at concentration: Possible toxicity at 10 µM and greater
MCF-7 cells [2]
  Modulation of the REFmix effect (in words): no indication of negative modulation
  Observed modulation: None
Yeast estrogen screen
  Modulation of the estrogenicity of estradiol or a ternary mixture of estradiol, estrone and estriol (in words): no effect

## C[C@@H]1C[C@@H]([C@H](O)CC2CC(=O)NC(=O)C2)C(=O)[C@@H](C)C1 [cycloheximide, reference compound]
Yeast estrogen screen
  Modulation of the estrogenicity of estradiol or a ternary mixture of estradiol, estrone and estriol (in words): negative modulation
